Source: US20110269837A1, “PHOSPHORUS BINDER COMPOSITION FOR TREATMENT OF HYPERPHOSPHATEMIA” (BIOLINK LIFE SCIENCES, INC., priority 2010, published 2011)
Counter-ions that a name gives are not always drawn. Like-named read-outs stand apart in the source and are kept apart here.

Legend:
[1] = for Observed in vitro Pi Binding, %: inventor's experiments, mean of triplicate determinations; for Pi binding (FIG. 1): 24 hours
Protocol: The pH of each solution was adjusted to the desired value by the addition of concentrated hydrochloric acid or sodium hydroxide, as appropriate.
An HPLC method with conductivity detection was developed and validated for use in the determination of succinate, acetate and phosphate. The separation was performed on a Dionex AS11 […] HPLC column integrated with an Agilent Series 1100 HPLC system, and detection of the anionic species was enabled using a Dionex ED50 Electrochemical Detector, operating in Conductivity Mode. Limits of Detection and Quantitation were enhanced through the use of a Dionex Anion Self-Regenerating Suppressor. After assay-specific development and verification of assay performance were completed, the analysis of phosphate and succinate or acetate was performed by sampling the test solution and diluting it, if necessary, to a concentration within the linear range of the Assay. The sample was then injected onto the HPLC column and eluted with a sodium hydroxide gradient. Data were acquired using Agilent ChemStation® software.
Experimental Methods: Experiments were completed in triplicate in which 2.77 g of Na2HPO4.7 H2O (equivalent to 320 mg of elemental phosphorus) was dissolved in 570 mL of deionized water. The test or control binder was dissolved in deionized water to a volume of 30 mL. The binder solution was added to the phosphorus solution to give a final volume of 600 mL. For each binder study, the phosphorus solutions were titrated by addition of dilute HCl or dilute NaOH to five different initial pH levels: 4, 5, 6, 7, and 8. (These solution pH's span the pH range of the gastrointestinal tract.) Then the beakers containing the solutions were covered with plastic wrap and placed on a stir plate that agitated the solution at ˜20 cycles per minute overnight. This stirring rate has been selected because in vitro antacid activity at such low stirring rates has been reported to correlate well with in vivo antacid activity in the stomach. Samples for ion chromatographic assay of solution phosphate (Pi) were taken at 24 hours post-mixing (the maximum time available for phosphorus binding that has been reported in related in vivo studies). The decrease in phosphorus concentration from the original concentration in the phosphorus solution to that of the filtrate represents the bound phosphorus.

[2] = healthy human subjects, anticipated
Text: Net calcium absorption will be measured by a validated method, such as the one described in detail by Bo-Linn, G. W. et al., Journal of Clinical Investigation, 73: 640-647 (1984). The procedure that will be followed is described below.
On each day, subjects will be prepared by a mannitol-electrolyte gastrointestinal lavage, in order to cleanse the gastrointestinal tract. […] Then each subject will eat a test meal of 80 g ground sirloin steak, 100 g French fried potatoes, 30 g Swiss cheese and 250 mL water containing 10 g of polyethylene glycol (PEG3500) as a non-absorbable marker. After the meal, each subject will consume 25 mEq of calcium, in the same form as will have been consumed prior to the meal, or additional placebo, with 100 mL of water. Duplicate meals will be prepared (one for consumption and one to be analyzed for calcium and phosphorus). The duplicate meals will be analyzed for calcium and phosphorus and are expected to contain about 350 mg of phosphorus and about 215 mg of calcium. […]
Ten hours after a meal, a second lavage will be begun, using the procedure described above. […] All urine voided during the 10-hour period will be collected and analyzed for phosphorus and calcium. Rectal effluent will be collected, pooled with any stool passed during the 10-hour period and analyzed for phosphorus and calcium. Absorption will be calculated according to the following equation: […]

[3] = Sheikh et al. 1989, cited from earlier work

O=C(O)CCC(=O)O [Calcium Succinate, butanedioic acid calcium salt]
Pi binding compared with calcium acetate (FIG. 1) ([1]; each pH value in the range from pH 4 to 8): matches or exceeds
Observed in vitro Pi Binding, % ([1]; pH 4.0): 59.4%
Observed in vitro Pi Binding, % ([1]; pH 6.0): 94.0%
dietary phosphorus absorbed from the GI tract ([2]; ingested close in time to test meal): about 20%
change in the percentage of dietary calcium absorbed from the GI tract ([2]; versus placebo day): less than 10%

CC(=O)[O-].CC(=O)[O-].[Ca+2] [Calcium Acetate, calcium acetate]
Pi binding (FIG. 1) ([1]; pH 4): 100%
Observed in vitro Pi Binding, % ([1]; pH 4.0): 58.6%
Pi binding (FIG. 1) ([1]; pH 5): 92%
Pi binding (FIG. 1) ([1]; pH 6): 100%
Observed in vitro Pi Binding, % ([1]; pH 6.0): 93.8%
Pi binding (FIG. 1) ([1]; pH 7): 100%
Pi binding (FIG. 1) ([1]; pH 8): 100%

O=C([O-])CC(O)(CC(=O)[O-])C(=O)[O-].O=C([O-])CC(O)(CC(=O)[O-])C(=O)[O-].[Ca+2].[Ca+2].[Ca+2] [Calcium Citrate, calcium citrate]
Observed in vitro Pi Binding, % ([3]; pH 6.0): 10%
Observed in vitro Pi Binding, % ([3]; pH 6.5): 20% at pH 6.5 (NOTE 2)

calcium gluconate
Observed in vitro Pi Binding, % ([3]; pH 6.0): 90%

O=C([O-])[O-].[Ca+2] [Calcium Carbonate, calcium carbonate]
Observed in vitro Pi Binding, % ([3]; pH 6.0): 90%

CC(O)C(=O)[O-].CC(O)C(=O)[O-].[Ca+2] (centres unmarked) [Calcium Lactate, calcium lactate]
Observed in vitro Pi Binding, % ([3]; pH 6.0): 90%
